Results on one compound are retold here after patent US12629365B2, “Pharmaceutical compositions of 5-HT6 receptor antagonist” (SUVEN LIFE SCIENCES LIMITED, priority 2016, dated 2026).

The series in a line: BCS classification. It is filed as physicochemical. Particulars: based on our experimental results.

As to `COc1ccc2c(c1)c(CN1CCN(C)CC1)cn2S(=O)(=O)c1ccccc1Br` [Compound 1, 1-[(2-Bromophenyl)sulfonyl]-5-methoxy-3-[(4-methyl-1-piperazinyl)methyl]-1H-indole dimesylate monohydrate], the BCS classification entry is reported as “class I”.
